| Compound | melting point [°C] |
| --- | --- |
| Cc1[nH]c(C(=O)NCC2=NNC(=O)CC2)c(C)c1-c1nc2ccc(C(=O)c3ccccc3)cc2[nH]1 | 287 |
| COc1ccc(Nc2cccc3c2C(=O)N(C2CCC(=O)NC2=O)C3=O)c(OC)c1 (stereo not given) | 208 to 210 |
| CCOC(=O)CN1Cc2c(C)cccc2NC1=O | 184 to 185 |
| CCOC(=O)c1c(CC(=O)O)n(-c2ccc(OC(C)C)cc2)c2ccc(Oc3ccc(CCl)cn3)cc12 | 153 to 155 |
| CC(C)n1nc(O)ccc1=O | 148 |
| CCCCCCCCS(=O)(=O)CCCC(=O)OO | 113 to 115 |
| COc1cc(C(F)(F)F)ccc1C#N | 59 to 61 |
| Cc1ccnc(O)c1C#N | 230 to 232 |
| CC(NC(=O)c1cc(Cl)cc(Br)c1N)C1CC1 (stereo not given) | 177 |
| CC(C)S(=O)(=O)Nc1cccc(C=C2c3ccccc3CCc3ccccc32)c1 | 188 |
| COC(=O)c1ccc(CN([C@@H](C)c2ccccc2)S(=O)(=O)c2ccc(Cl)cc2)cc1 | 105 to 106 |
| O=C(CO)Nc1nc(-c2ccc(Br)cc2)cs1 | 222 to 224 |
| CC(=O)OCC(CCn1cnc2c(=O)[nH]c(N)nc21)COC(C)=O | 202 to 205 |
| CCCc1[nH]c2cc(C(=O)O)ccc2c1C(=O)COC | > 250 |
| Cc1ccsc1-c1[nH]nc2c1C(=O)c1c(NC(N)=O)cccc1-2 | 270 |
| C=C1NC(=O)N(Cc2ccccc2)C1=N | 139 to 141 |
| CN(C)CC1Cn2cc(C(=O)NCc3ccc(Cl)cc3)c(=O)c3cc(CN4CCOCC4)cc(c32)O1 (stereo not given) | 168 to 170 |
| CCOC(=O)[C@@H](CO)NCc1c(N)cccc1Cl | 73 to 75 |
| CC(C)(C)c1cc(C(=O)c2cccs2)cc(CN2CCCC2)c1O | 95 to 97 |
| COc1nc(N)nc2c1ncn2COC(CO)CO | 162 to 163 |
| COc1cc(C)c2c(=O)c3c(C)c(Cl)ccc3oc2c1OC | 101 |
| CCCn1c(=O)c2[nH]c(/C=C/c3cccs3)nc2n(CCC)c1=O | 270 |
| CC(=O)NCCCc1ccc(Cl)c2c1CCO2 | 76 to 78 |
| N#Cc1c(N2CCN(C(=O)c3cnccn3)CC2)c2ccccc2n(Cc2ccc(F)cc2)c1=O | 145 to 156 |
| CCOc1ccc(OC)c2c1CCC=C2 | 59 to 60 |

| Compound | melting point [°C] |
| --- | --- |
| O=C1CCc2ccc(OCCCCCl)cc2N1 | 104 to 106 |
| CN1CCN(Cc2nc3cccnc3n2CCO)CC1 | 89.5 |
| COC(=O)C1(CCCN2CCN(c3ccc(O)cc3)CC2)Sc2cc(OC)ccc2CCC1O (stereo not given) | 120 to 124 |
| Cc1cn(C2CC(OP(N)O)C(CO[Si](C)(C)C(C)(C)C)O2)c(=O)[nH]c1=O (stereo not given) | 68 to 70 |
| CCOC(=O)c1sc2ccc3c(c2c1Cl)O[C@@H](CO)CO3 | 165 to 166 |
| CC(=O)OCCCCCC1CC2=CC(=O)CCC2C2C(F)CC3(C)C(=O)CCC3C12 (stereo not given) | 78.4 |
| CCCCc1nc(=O)c2cc(C(C)(C)O)ccc2[nH]1 | 190 to 192 |
| C[C@@](O)(C(=O)Nc1ccc(S(=O)(=O)c2ccc(F)cc2)cc1Cl)C(F)(F)F | 131 to 133 |
| O=[N+]([O-])c1ccc2c(c1)CCN(Cc1ccc3cc([N+](=O)[O-])ccc3n1)CC2 | 127 to 130 |
| Clc1cncnc1NCc1ccc(OCc2ccccc2)cc1 | 95 to 100 |
| Cc1ccc(-c2ccc(S(C)(=O)=O)cc2)n1-c1ccc(Br)cc1 | 200 to 202 |
| c1ccc(-c2cc(-c3ccc(-c4nccc5ccccc45)cc3)cc(-c3nc(-c4ccccc4)nc(-c4ccccc4)n3)c2)cc1 | 280 |
| CCCc1nc2c(N)nc3cc(Oc4ccc(N)cc4)ccc3c2n1CC(C)C | 190 to 191 |
| CC(O)c1cccc(OCc2cccc(C(=O)O)c2)c1 (stereo not given) | 115 to 117 |
| COc1cc2c(c(C(N)=O)c1OC)CCNCC2c1ccccc1 (stereo not given) | 178 to 180 |
| COc1c2c(c(OC)c(OC)c1OC)CC(CCCOc1ccc(C(=O)O)cc1)C2 | 160 to 161 |
| COCn1c(C(N)=O)c(OC(C)C)c2cc(OC)ccc21 | 145 to 147 |
| C=Cn1cc(C(=O)O)c(=O)c2ccc(N3CCN(C)CC3)nc21 | 238 to 239 |
| O=C(Nc1ccc([N+](=O)[O-])cc1O)NC(c1ccccc1)c1ccccc1 | 237 to 238 |
| CCOC(=O)C1=C(C)NC(C(Nc2ccccc2C(=O)O)SCc2ccccc2)=C(C(=O)OCC)C1c1cccc([N+](=O)[O-])c1 (stereo not given) | 105 to 107 |
| CN(CC(=O)O)C(=S)c1ccc(Cl)cc1 | 72 to 73 |
| Fc1ccc(-c2ncn(CC3CC3)c2-c2ccncc2)cc1 | 162 |
| O=C(O)CC1C(CCl)=CCC1O (stereo not given) | 33 to 34 |
| CC(C)(C)C(NC(=O)c1ccccc1)NC(=S)Nc1cccnc1 (stereo not given) | 193 to 194 |
| COc1ccccc1CN1CN2CCCC1C2c1ccccc1 (stereo not given) | 105 to 107 |

| Compound | melting point [°C] |
| --- | --- |
| CC(C)(C)OC(=O)Nc1ccccc1NC(=O)c1ccc(CBr)cc1 | 282 to 283 |
| Nc1c(-c2ccccc2O)c2ccccc2[nH]c1=O | 235 to 237 |
| CCCCCCN(Cc1ccccc1)c1c(N[C@@H](Cc2ccccc2)C(=O)O)c(=O)c1=O | 61 to 65 |
| COc1ccc(-c2nc(-c3cccs3)c[nH]2)cc1Br | 84 to 87 |
| Ic1cccc2cc3ccccc3cc12 | 152 to 154 |
| Cc1ccc(NC(=O)OC2CCCCC2)cc1NC(=O)OC1CCCCC1 | 156 |
| CC(=O)OC1C=C(C)C(=O)CC(C)(C)C1OC(=O)c1ccc(Cl)cc1 (stereo not given) | 86 to 87 |
| CN(C)c1ccc(C(=O)NC(=O)Nc2ccc3c(c2)NC(=O)/C3=C\c2ccc[nH]2)cc1 | 285 to 290 |
| CCOC(=O)C1=C2c3[nH]c4ccc(Cl)cc4c3CCN2CCC1 | 82 to 83 |
| CCCOc1ccccc1-c1nc2[nH]c(=O)c(=O)[nH]c2c(=O)[nH]1 | 312 to 315 |
| CC(=O)OCc1ccc(Sc2ccccc2C(=O)N(C)C)c([N+](=O)[O-])c1 | 117 to 118 |
| COCCNC(=O)c1ccc(/C=C/C(=O)O)cc1 | 205 |
| CCC=C(C)C(O)C(CC)CC (stereo not given) | 92 to 93 |
| CCCCCCCN=C1SC(=CC(=O)O)C(=O)N1CCCCCCC | 80 to 81 |
| Cc1c(F)c(F)cc2c(=O)c(C(=O)O)cn(-c3nc(N)c(F)cc3F)c12 | 274 to 277 |
| CCCCN1C(=O)CC(c2cc(C(C)(C)C)c(O)c(C(C)(C)C)c2)C1=O (stereo not given) | 109 to 112 |
| O=[N+]([O-])c1ccc(Oc2ccc(O)cc2)cc1 | 173 to 174 |
| CC(=CC(CNC(=O)c1cccnc1)=NO)C(C)[N+](=O)[O-] (stereo not given) | 137 to 139 |
| C[C@@H](NC(=O)c1c[nH]c2ncc(-c3nn(C)c4cc(Cl)cc(Cl)c34)nc12)C(=O)N1CC(C#N)C1 | 196 to 200 |
| CCN1CCCC1CNC(=O)c1nc(NC)sc1-c1ccncc1 (stereo not given) | 76 to 78 |
| CC(=O)c1ccc(/C=C(\C)c2ccc3c(c2)C(C)(C)CC3(C)C)cc1 | 130 to 131 |
| O=C(N1CCOCC1)n1nc2c(Cl)c(Cl)c(Cl)c(Cl)c2n1 | 194 |
| COC(=O)c1cc2ccnc(NCc3ccccc3)c2[nH]1 | 154 to 155 |
| CN(C)C(=O)Nc1cccc(C#N)n1 | 125 |
| CN(C)S(=O)(=O)c1cc(-c2csc(=Nc3ccccc3Cl)n2C)ccc1Cl | 152 to 154 |

Source: a melting point compilation (Tetko et al.; mined from patent text by program, amines drawn as free bases though some values may be those of a salt)
